As usually defined, the IC50 is the concentration that inhibits the measured activity by half.

Two molecules from article PMC9822194, “Chemoselective Synthesis of Mannich Adducts from 1,4-Naphthoquinones and Profile as Autophagic Inducers in Oral Squamous Cell Carcinoma” (Molecules, 2022) can be followed below.

For data set [1], the system named is normal human gingival fibroblasts. Briefly: MTT cell viability assay, normal fibroblasts. Particulars: 48 h, read-out: Primary Gengival Fibroblast IC50. The data set is classed as cell-based. Here is the method:
(§1) Cells and reagents. Human SCC-4, SCC-9 and SCC-25 cells, derived from a human oral tongue SCC were obtained from the ATCC (CRL-1624; CRL-1629 and CRL-1628, respectively) and maintained at 1:1 DMEM/F12 (Dulbecco’s modified Eagle medium and Ham’s F12 medium; Gibco, Thermo Fisher, Waltham, MA, USA) supplemented with 10% (v/v) FBS (fetal bovine serum; Invitrogen, Thermo Fisher, Waltham, MA, USA) and 400 ng/mL hydrocortisone (Sigma-Aldrich Co., St. Louis, MO, USA). Primary normal human gingival fibroblasts were obtained from the ATCC (PCS-201-018), maintained in DMEM supplemented with 10% (v/v) FBS, and used in a maximum of 6 passages. Cells were grown in a humidified environment containing 5% CO2 at 37 °C. […] Carboplatin in water (Fauldcarbo®; Libbs Farmacêutica, São Paulo, SP, Brazil) was used as a standard anticancer compound.
(§2) Cell viability assay (cytotoxicity) and stability assay. To assess cell viability, cells were grown in triplicate in 96-well plates (5 × 10^3 cells/well) until confluence when treated with the different compounds as in Machado et al.. Briefly, DMSO in the same concentrations was used as a 100% cell viability control. After 48 h, cells were incubated with 5 mg/mL MTT reagent (3-(4,5-dimethyl-2-thiazolyl)-2,5-diphenyl-2H-tetrazolium bromide) (Sigma-Aldrich Co., St. Louis, MO, USA) for 3.5 h. Formazan crystals were dissolved in MTT solvent (DMSO/methanol 1:1 v/v) and the absorbance at 560 nm was evaluated using an EPOCH microplate spectrophotometer (BioTek Instruments, Winooski, VT, USA) with background absorbance at 670 nm subtracted. Each of the eighteen compounds was tested at six or seven different concentrations, ranging from 0.3 µM to 200 µM in cancer cell lines (SCC-4, SCC-9 and SCC-25) and 0.4 µM to 300 µM in normal primary human gingival fibroblast.
(§3) Statistical analysis, IC50 calculation. IC50 values for MTT assays were obtained by non-linear regression using the GraphPad Prism 5.0 software (GraphPad, San Diego, CA, USA) from at least three independent experiments. Data are presented as means ± SD. A dose-response (inhibitor) vs response curve using the least squares method was used to determine the IC50, SD and R2 of the data. The selectivity index was calculated as S.I. = IC50 of the compound in normal oral fibroblast cells/IC50 of the same compound for each oral cancer cell line (SCC-4, SCC-9 and SCC-25) and the mean was calculated when indicated.
Background: Tetrazolium dyes change colour on reduction, which living cells bring about.

Data set [2] has as its system SCC9 cells. Briefly: MTT assay with cell death inhibitors (ZVAD, necrostatin-1, 3-MA). It counts as cell-based, Human. Particulars: SCC9, 3-MA 5000 µM. As for the experimental part:
as §2, with “After 48 h, cells were incubated with 5 mg/mL MTT reagent (3-(4,5-dimethyl-2-thiazolyl)-2,5-diphenyl-2H-tetrazolium bromide) (Sigma-Aldrich Co., St.” left out

In another data set the test system is SCC-4 cells. Briefly: MTT cell viability assay, SCC4. The data set is classed as cell-based, Human. The settings on record: read-out: SCC4 IC50. As for the experimental part:
as §1, §2, §3

Data set [3] concerns OSCC cell lines (SCC 4, SCC-9 and SCC-25). In words: MTT assay, mean over three OSCC cell lines and average selectivity index. It counts as cell-based, Human. The settings on record: for IC50: read-out: Oral Tumor Cells Mean IC50; for Average S.I.: average selectivity index over SCC-4, SCC-9, SCC-25 vs normal fibroblasts. As for the experimental part: as §2, §3
Another data set deals with SCC-9 (OSCC cells). In words: MTT cell viability assay (cytotoxicity), SCC9. The data set is classed as cell-based, Human. Particulars: for Selective Index (S.I.): IC50 normal oral fibroblasts/IC50 SCC-9. Here is the method: as §1, §2, §3
Another data set relates to SCC-25 cells. Briefly: MTT cell viability assay, SCC25. It counts as cell-based, Human. Particulars: read-out: SCC25 IC50. As for the experimental part:
as §1, §2, §3

Data set [4] concerns primary human fibroblasts. In words: Clonogenic assay, primary human fibroblasts. The data set is classed as cell-based. Particulars: 2 × IC50, 5 days, normal fibroblasts. Here is the method:
(§4) Clonogenic assay. The SCC9 strain and primary human fibroblasts were grown in duplicates in 24-well plates (5 × 10^4 cells/well) and incubated for 24 h. […] DMSO was used at the same concentrations as a control for 100% of viability. After 5 days of incubation, the culture medium was removed and the cells were fixed with absolute ethanol (500 µL) for 10 min, then stained with crystal 0.05% violet (Sigma Aldrich) in 20% ethanol (500 µL) for 10 min and washed with distilled water. The plates were scanned to quantify the inhibition of the formation of colonies. Then, crystal violet was solubilized in 33% acetic acid and added to the 96-well plate. Finally, the absorbance was read in a spectrophotometer (EPOCH, BioTek Instruments, Winooski, VT, USA) (595 nm).

Data set [5] has as its system SCC9 cells. In words: Clonogenic assay, SCC9. The data set is classed as cell-based, Human. The settings on record: 2 × IC50, 5 days. Here is the method: as §4
Data set [6] relates to SCC9 cells. In words: Stability test (pre-incubation at 37 °C, then MTT on SCC9). It counts as cell-based, Human. Particulars: 2 × IC50 pre-incubated 0-48 h at 37 °C, then SCC9 48 h. As for the experimental part: After the desired treatment time was reached, the medium containing the compound was replaced with untreated culture medium and the MTT assay was performed at the end of both experiments.

The structures appear in SMILES notation. Where two headings read alike, the source gives them in different places.

As for `CC(C)=CC[C@@H](O)C1=CC(=O)c2c(O)ccc(O)c2C1=O` [Shikonin, reference compound], the IC50 in data set [1] (Homo sapiens, Fibroblast) is 1.72 µM; in the data set with SCC-4 cells (Homo sapiens, SCC-4, 48 h), 1.91 µM; in [3] (Homo sapiens), 1.74 µM; in the data set with SCC-9 (OSCC cells) (Homo sapiens, SCC-9, 48 h, read-out: SCC9 IC50), 1.81 µM; in the data set on SCC-9 (OSCC cells) (Homo sapiens, SCC-9, 48 h, read-out: SCC9—Oral Cancer IC50), 1.8 µM; in the data set on SCC-25 cells (Homo sapiens, SCC-25, 48 h) it was 1.5 µM. In addition, the “Effect of autophagy inhibitor 3-MA on induced cell death” value with SCC9 cells [2] was “reduced cell death”. Besides, the “Average S.I.” value in data set [3] is on record as 0.98. Besides, in the data set with SCC-9 (OSCC cells), the “Selective Index (S.I.)” value was 0.95.

For the molecule `N.N.O=C([O-])C1(C(=O)[O-])CCC1.[Pt+2]` [Carboplatin], in data set [4], the “Cells viable and able to form colonies” value is reported as “less than 50%”. Moreover, the half-inhibitory concentration (IC50) in [1] (MTT, Table 1) was 193 µM; with SCC-4 cells (MTT, 48 h), 195 µM; in data set [3] (mean of SCC9, SCC25, SCC4), 228 µM; in the data set with SCC-9 (OSCC cells) (MTT, 48 h, Table 1, read-out: SCC9—Oral Cancer IC50) it was 223 µM; in the data set with SCC-25 cells (MTT, 48 h) it was 264 µM. For the same molecule, the “Average S.I.” value in data set [3] was found to be 0.85; in data set [3] (listed as carboplatin), 0.847. Besides, the “Cytotoxicity in clonogenic assay (colony formation)” value in the data set on SCC9 cells [5] is “high cytotoxicity”. Also, the “Stability at 37 °C (retained cytotoxicity)” value in the data set on SCC9 cells [6] is “stable even after 48 h”. In the data set with SCC-9 (OSCC cells), the “Selective Index (S.I.)” value stood at 0.85.
